Test results: ChEMBL document CHEMBL3244418, “Synthesis and central nervous system activity of quinazolones related to 2-methyl-3-(o-tolyl)-4(3H)-quinazolone (methaqualone)” (J Med Chem, 1977)

What was measured:
Mus musculus [1] = assay: Anticonvulsant activity in ip dosed CFLP mouse assessed as inhibition of maximum electroshock-induced seizure; type: functional
Mus musculus [2] = assay: Hypnotic activity in ip dosed CFLP mouse assessed as loss of righting reflex; type: functional
Mus musculus [3] = assay: Anticonvulsant activity in ip dosed CFLP mouse assessed as inhibition of pentylenetetrazole-induced seizure; type: functional
Mus musculus [4] = assay: Hypnotic activity in ip dosed CFLP mouse after 30 mins by rotary drum test; type: functional; conditions: 0.5 h
Mus musculus [5] = assay: […] activity in po dosed CFLP mouse assessed as inhibition of benzoquinone-induced writhing; type: functional
[6] = Chemical stability of the compound assessed as methaqualone/sulfur/disulfide formation; type: physicochemical

SMILES	ED50 (Mus musculus [1]) [mg/kg]	ED50 (Mus musculus [2]) [mg/kg]	ED50 (Mus musculus [3]) [mg/kg]	ED50 (Mus musculus [4]) [mg/kg]	ED50 (Mus musculus [5]) [mg/kg]	Stability [6]
Br.N=C(N)SCc1nc2ccccc2c(=O)n1-c1ccccc1	53	200	> 50	42	–	–
Br.N=C(N)SCc1nc2ccccc2c(=O)n1-c1ccccc1Cl	–	200	–	–	90	–
Cc1ccccc1-n1c(CBr)nc2ccccc2c1=O	> 200	> 200	–	> 200	> 150	–
Cc1ccccc1-n1c(CF)nc2ccccc2c1=O.Cl	14.5	75	16	18	–	–
Cc1ccccc1-n1c(CI)nc2ccccc2c1=O	> 200	> 400	–	> 200	–	–
Cc1ccccc1-n1c(C(F)F)nc2ccccc2c1=O	> 100	> 400	50	100	–	–
Cc1ccccc1-n1c(C(Br)Br)nc2ccccc2c1=O	> 200	> 800	> 200	> 200	> 400	–
Cc1ccccc1-n1c(C(F)(F)F)nc2ccccc2c1=O	> 200	> 400	> 200	> 200	> 200	–
COCc1nc2ccccc2c(=O)n1-c1ccccc1C	26	300	100	22	100	–
CCOCc1nc2ccccc2c(=O)n1-c1ccccc1C	64	300	–	27	> 200	–
CCCOCc1nc2ccccc2c(=O)n1-c1ccccc1C	> 200	> 400	150	–	> 200	–
CCCCOCc1nc2ccccc2c(=O)n1-c1ccccc1C	120	> 400	–	88	> 200	–
Cc1ccccc1-n1c(CO)nc2ccccc2c1=O	135	> 400	70	56	> 200	–
CC(=O)OCc1nc2ccccc2c(=O)n1-c1ccccc1C	120	> 400	150	155	200	–
Cc1ccccc1-n1c(COC(=O)CCC(=O)O)nc2ccccc2c1=O	> 200	> 400	150	> 200	> 200	–
CCCSCc1nc2ccccc2c(=O)n1-c1ccccc1C	160	> 800	70	100	> 200	–
Cc1ccccc1-n1c(CSC(N)=O)nc2ccccc2c1=O	120	400	56	200	> 200	–
Cc1ccccc1-n1c(CSC(N)=O)nc2ccccc2c1=O.Cl	34	35	–	19	200	–
Cc1ccccc1-n1c(CSS(=O)(=O)O)nc2ccccc2c1=O	82	150	39	44	> 200	–
Br.Cc1ccccc1-n1c(CSC(=N)N)nc2ccccc2c1=O	65	56	28	35	> 50	–

SMILES	ED50 (Mus musculus [1]) [mg/kg]	ED50 (Mus musculus [2]) [mg/kg]	ED50 (Mus musculus [3]) [mg/kg]	ED50 (Mus musculus [4]) [mg/kg]	ED50 (Mus musculus [5]) [mg/kg]	Stability [6]
Br.C/N=C(\NC)SCc1nc2ccccc2c(=O)n1-c1ccccc1C	25	100	23	32	51	–
Br.CCCC/N=C(\NCCCC)SCc1nc2ccccc2c(=O)n1-c1ccccc1C	> 40	> 100	> 40	40	200	–
Br.Cc1ccc([N+](=O)[O-])cc1-n1c(CSC(=N)N)nc2ccccc2c1=O	–	> 400	–	–	> 200	–
Br.Cc1ccccc1-n1c(CS/C(N)=N/N)nc2ccccc2c1=O	35	100	23	15.5	–	–
Br.Cc1ccccc1-n1c(CSC2=NCCCN2)nc2ccccc2c1=O	50	200	–	39	170	–
Br.C/N=C(/NC)SCc1nc2ccccc2c(=O)n1-c1ccccc1Cl	30	150	40	27	200	–
Br.C/N=C(\NC)SCc1nc2ccccc2c(=O)n1-c1ccccc1	40	> 400	50	> 50	200	–
Br.N=C(N)SCc1nc2ccccc2c(=O)n1-c1ccccc1F	38	400	75	43	100	–
Br.C/N=C(\NC)SCc1nc2ccccc2c(=O)n1-c1ccccc1F	45	> 400	> 50	54	> 50	–
Br.C/N=C(\NC)SCc1nc2ccccc2c(=O)n1-c1cc([N+](=O)[O-])ccc1C	> 10	> 50	> 10	> 10	> 10	–
Br.Cc1c(Cl)cccc1-n1c(CSC(=N)N)nc2ccccc2c1=O	42	400	–	57	200	–
Br.Cc1ccccc1-n1c(CSC2=NCCN2)nc2ccccc2c1=O	44	60	24	42	> 50	–
Br.O=c1c2ccccc2nc(CSC2=NCCN2)n1-c1ccccc1Cl	18	50	25	12	–	–
Br.O=c1c2ccccc2nc(CSC2=NCCN2)n1-c1ccccc1F	37.5	200	100	32	90	–
Br.O=c1c2ccccc2nc(CSC2=NCCN2)n1-c1ccccc1	50	200	> 50	> 50	50	–
Br.Cc1ccc([N+](=O)[O-])cc1-n1c(CSC2=NCCN2)nc2ccccc2c1=O	100	> 400	150	86	> 200	–
Br.O=c1c2ccccc2nc(CSC2=NCCN2)n1-c1ccc(Cl)cc1	35	> 200	37.5	47	> 75	–
Br.Cc1c(Cl)cccc1-n1c(CSC2=NCCN2)nc2ccccc2c1=O	> 25	80	25	> 25	–	–
COc1ccccc1-n1c(CS)nc2ccccc2c1=O	–	–	–	–	–	Unstable
Cc1ccccc1-n1c(C)nc2ccccc2c1=O [METHAQUALONE]	48	96	14	30	36	–
